# Measurements as given in patent US20170290889A1, “METHODS AND COMPOSITIONS FOR TREATING DYSBIOSIS AND GASTROINTESTINAL AND INFLAMMATORY DISORDERS” (New York University, priority 2016, published 2017).
# Tests used:
# [1] = tested on: Ascaris spp.; experiment: Albendazole deworming of Orang Asli (formalin-ether sedimentation, Kato Katz); type: in vivo, human
# [2] = tested on: Hookworm; experiment: as above; type: in vivo, human
# [3] = tested on: T. trichiura; experiment: as above; type: in vivo, human
# [4] = tested on: Clostridiales; experiment: 16S sequencing of mouse stool / small intestinal microbiota (LEfSe); type: in vivo; settings: stool of uninfected Nod2−/− mice treated with recombinant cytokine, 16S / LEfSe
# [5] = tested on: Bacteroides vulgatus; experiment: B. vulgatus colonization (stool, small intestinal tissue) in Nod2−/− mice, reported together with goblet cells; type: in vivo; settings: Nod2−/− mice injected IP with complex of 5 μg recombinant cytokine and 25 μg anti-cytokine antibody for 21 days
# [6] = tested on: M2 macrophage activation genes; experiment: RNA-seq gene expression analysis of small intestinal tissue (ileum) of Nod2−/− mice treated with rIL-13 or PBS; type: in vivo; settings: for Log2 Fold Change: Nod2−/− mice treated with recombinant IL-13 compared to PBS controls
# Text: Mice. Nod2−/−, Rag1−/−, Nod2−/−, and Stat6−/− mice on the C57BL/6 background were previously described and bred onsite in an MNV/Helicobacter-free specific pathogen free (SPF) facility at NYU School of Medicine (6, 23). Wild-type (WT) C57BL/6 mice were purchased from Jackson Laboratory and bred onsite to generate controls for experiments. Bone marrow chimeras were generated by lethally irradiating 8-week old female recipient mice (1100 CGy in two divided doses) followed by intravenous (i.v.) injection of 5×10^6 T cell-depleted bone marrow cells from donor female mice. For anti-CD4 treatment, mice were infected with T. muris and injected intra-peritoneally (IP) with 0.25 mg anti-CD4 (clone GK1.5) or anti-IgG2b isotype control (clone LTF-2) (BioXCell) every 3 days for 21 days and animals were sacrificed on day 21. For anti-IL13 treatment, mice were infected with H. polygyrus and injected IP with 0.15 mg anti-IL13 (clone 1316H) (eBioscience) or anti-IgG1 isotype control (clone 43414) (R&D Systems) starting on day 3 post-infection every 3 days for 12 days and animals were sacrificed on day 12. For recombinant IL-13 and IL-4 experiments, mice were injected IP with a complex of 25 μg of anti-IL13 (eBio1316H) and 5 μg of recombinant IL-13 (Peprotech cat #210-13), or a complex of 25 μg of anti-IL4 (BioXcel) and 5 μg of recombinant IL-4 (Peprotech cat #214-14) for 21 days and mice were sacrificed on day 21.
# Gene Expression Analysis. RNA was isolated from one cm of small intestinal tissue (ileum) from Nod2^−/− mice treated with rIL-13 or PBS, or WT mice treated with PBS for normalization. An RNA library was prepared using the TruSeq stranded total RNA, with the RiboZero Gold kit and samples were sequenced on the Illumina HiSeq to generate single-end 50 bp reads. Raw sequencing reads were aligned to the mouse reference genome mm10 and the RefSeq reference transcriptome using TopHat (v2.0.12) with the alignment parameter—library-type fr-firststrand (28). Reads with mappability score (MAPQ) <30 were removed. The total number of filtered reads were counted for each gene using htseq-count with the parameters—stranded=reverse and—mode=union. Singleton genes (i.e. genes with total count <1) were filtered and the resulting count matrix was used for differential analysis using the DESeq2 workflow with default parameters (29, 30). Differential genes with rIL-13 treatment were identified at FDR 10%. Pathway analysis was performed using the DAVID platform as previously described (6).
# [7] = T. trichiura, post-treatment n=64
molecule,measurement,setting,value
CCCSc1ccc2nc(NC(=O)OC)[nH]c2c1 [albendazole],Cure rate (%),[1]; 20 days,80.0%
same,Number of infected persons cured after deworming,[1]; 20 days,8
same,range of epg after treatment,[1]; after albendazole 3×400 mg,22-4999 epg
same,Light-intensity infections after treatment (%),[1]; post-treatment n=64,3.1%
same,"Light-intensity infections after treatment, number",[1]; post-treatment n=64,2
same,Total infections after treatment (%),[1]; post-treatment n=64,3.1%
same,"Total infections after treatment, number",[1]; post-treatment n=64,2
same,Cure rate (%),[2]; 20 days,96 .3%
same,Number of infected persons cured after deworming,[2]; 20 days,26
same,range of epg after treatment,[2]; after albendazole 3×400 mg,22 epg
same,Light-intensity infections after treatment (%),[2]; post-treatment n=64,1.6%
same,"Light-intensity infections after treatment, number",[2]; post-treatment n=64,1
same,Total infections after treatment (%),[2]; post-treatment n=64,1.6%
same,"Total infections after treatment, number",[2]; post-treatment n=64,1
same,Cure rate (%),"[3]; T. trichiura, 20 days, albendazole 3 doses, 400 mg/day",32.9%
same,range of epg after treatment,"[3]; T. trichiura, after albendazole 3×400 mg","22-2,266 epg"
same,Light-intensity infections after treatment (%),[3]; [7],70.3%
same,"Light-intensity infections after treatment, number",[3]; [7],45
same,Moderate-intensity infections after treatment (%),[3]; [7],3.1%
same,"Moderate-intensity infections after treatment, number",[3]; [7],2
same,Total infections after treatment (%),[3]; [7],73.4%
same,"Total infections after treatment, number",[3]; [7],47
same,"Trichuris trichiura egg burden (eggs per gram of feces, Kato-Katz)","[3]; post treatment with Albendazole (3 doses, 400 mg/day)",reduced
"rIL-13: recombinant IL-13 (Peprotech cat #210-13), type 2 cytokine, injected IP as complex with anti-IL13 (protein, UniProt P20109 19-131, looked up, complexed with anti-IL-13 antibody, recombinant IL-13 (Peprotech cat #210-13), type 2 cytokine, injected IP as complex with anti-IL13) Interleukin-13: APGPVPRSVSLPLTLKELIEELSNITQDQTPLCNGSMVWSVDLAAGGFCVALDSLTNISNCNAIYRTQRILHGLCNRKAPTTVSSLPDTKIEVAHFITKLLSYTKQLFRHGPF",expansion of Clostridiales,[4],expansion of Clostridiales was also observed
same,expansion of Clostridiales,[4]; listed as IL-13,induces the expansion of bacteria from the class Clostridia in the GI tract
same,effect on B. vulgatus and goblet cells,[5],sufficient to reproduce the effect of helminth infection
same,Log2 Fold Change,[6]; gene Arg1 (NM_007482),1.468
same,Log2 Fold Change,[6]; gene Ccl8 (NM_021443),1.5
same,Log2 Fold Change,[6]; gene Cd5l (NM_009690),1.504
same,Log2 Fold Change,[6]; gene Chi3l3 (NM_009892),2.681
same,Log2 Fold Change,[6]; gene Ear11 (NM_053113),1.698
same,Log2 Fold Change,[6]; gene Gm11428 (NM_001081957),1.53
same,Log2 Fold Change,[6]; gene Retnla (NM_020509),1.625
same,Log2 Fold Change,[6]; gene Saa3 (NM_011315),1.846
same,Log2 Fold Change,[6]; gene Serpina3n (NM_009252),1.58
same,RNA-seq analysis of intestinal tissues: response,[6]; rIL-13 treated Nod2−/− mice,wound healing response characterized by expression of M2 macrophage genes
"rIL-4: recombinant IL-4 (Peprotech cat #214-14), type 2 cytokine, injected IP as complex with anti-IL4 (protein, UniProt P07750 21-140, looked up, complexed with anti-IL-4 antibody, recombinant IL-4 (Peprotech cat #214-14), type 2 cytokine, injected IP as complex with anti-IL4) Interleukin-4: HIHGCDKNHLREIIGILNEVTGEGTPCTEMDVPNVLTATKNTTESELVCRASKVLRIFYLKHGKTPCLKKNSSVLMELQRLFRAFRCLDSSISCTMNESKSTSLKDFLESLKSIMQMDYS",expansion of Clostridiales,[4],expansion of Clostridiales was also observed
same,expansion of Clostridiales,[4]; listed as IL-4,induces the expansion of bacteria from the class Clostridia in the GI tract
same,effect on B. vulgatus and goblet cells,[5],sufficient to reproduce the effect of helminth infection
